Data from patent publication US7560450B2, “Xanthine derivatives, the preparation thereof and their use as pharmaceutical compositions” (Boehringer Ingelheim Pharma GmbH & Co., KG, priority 2002, dated 2009).

Tested on: rats
Assay: Tolerability after oral administration to rats (behaviour)
Format: in vivo
Conditions: 10 mg/kg

Structure (SMILES)	changes in the animals' behaviour
CC#CCn1c(N2CCC[C@@H](N)C2)nc2c1c(=O)n(CC(=O)Nc1ccccn1)c(=O)n2C [Example 1(3), 1-{[(pyridin-2-yl)aminocarbonyl]methyl}-3-methyl-7-(2-butyn-1-yl)-8-[(R)-3-amino-piperidin-1-yl]-xanthine]	no changes in the animals' behaviour could be detected

Target: T1, DPP-IV (Homo sapiens, UniProt P27487)
T1 construct: an extract of human colon carcinoma cell line Caco-2 is used as the DPP IV source; endogenous in cells; host or cells: Caco-2 (human colon carcinoma), differentiated to induce DPP-IV expression; Nonidet-P40 solubilised extract
Assay: DPP-IV assay with Caco-2 cell extract as DPP IV source
Format: biochemical
Conditions: extract of human colon carcinoma cell line Caco-2 as DPP IV source; substrate AFC 100 μM; 60 minutes at ambient temperature; 11 measuring points; read-out: DPP IV inhibition IC50
Procedure: The differentiation of the cells in order to induce the DPP-IV expression was carried out as described by Reiher et al. in an article entitled “Increased expression of intestinal cell line Caco-2”, which appeared in Proc. Natl. Acad. Sci. Vol. 90, pages 5757-5761 (1993). The cell extract was obtained from cells solubilised in a buffer (10 mM Tris HCl, 0.15 M NaCl, 0.04 t.i.u. aprotinin, 0.5% Nonidet-P40, pH 8.0) by centrifuging at 35,000 g for 30 minutes at 4° C. (to remove cell debris).
The DPP-IV assay was carried out as follows:
50 μl substrate solution (AFC; AFC is amido-4-trifluoromethylcoumarin), final concentration 100 μM, were placed in black microtitre plates. 20 μl of assay buffer (final concentrations 50 mM Tris HCl pH 7.8, 50 mM NaCl, 1% DMSO) was pipetted in. The reaction was started by adding 30 μl of solubilised Caco-2 protein (final concentration 0.14 μg of protein per well). The test substances to be investigated were typically added prediluted in 20 μl, and the volume of assay buffer was then reduced accordingly. The reaction was carried out at ambient temperature, incubating for 60 minutes. Then the fluorescence was measured in a Victor 1420 Multilabel Counter, the excitation wavelength being 405 nm and the emission wavelength being 535 nm. Blank readings (corresponding to 0% activity) were obtained in mixtures without any Caco-2 protein (volume replaced by assay buffer), control values (corresponding to 100% activity) were obtained in mixtures with no substance added. The potency of the test substances in question, expressed as IC50 values, was calculated from dosage/activity curves consisting of 11 measuring points in each case.

T1 sequence (P27487 whole entry): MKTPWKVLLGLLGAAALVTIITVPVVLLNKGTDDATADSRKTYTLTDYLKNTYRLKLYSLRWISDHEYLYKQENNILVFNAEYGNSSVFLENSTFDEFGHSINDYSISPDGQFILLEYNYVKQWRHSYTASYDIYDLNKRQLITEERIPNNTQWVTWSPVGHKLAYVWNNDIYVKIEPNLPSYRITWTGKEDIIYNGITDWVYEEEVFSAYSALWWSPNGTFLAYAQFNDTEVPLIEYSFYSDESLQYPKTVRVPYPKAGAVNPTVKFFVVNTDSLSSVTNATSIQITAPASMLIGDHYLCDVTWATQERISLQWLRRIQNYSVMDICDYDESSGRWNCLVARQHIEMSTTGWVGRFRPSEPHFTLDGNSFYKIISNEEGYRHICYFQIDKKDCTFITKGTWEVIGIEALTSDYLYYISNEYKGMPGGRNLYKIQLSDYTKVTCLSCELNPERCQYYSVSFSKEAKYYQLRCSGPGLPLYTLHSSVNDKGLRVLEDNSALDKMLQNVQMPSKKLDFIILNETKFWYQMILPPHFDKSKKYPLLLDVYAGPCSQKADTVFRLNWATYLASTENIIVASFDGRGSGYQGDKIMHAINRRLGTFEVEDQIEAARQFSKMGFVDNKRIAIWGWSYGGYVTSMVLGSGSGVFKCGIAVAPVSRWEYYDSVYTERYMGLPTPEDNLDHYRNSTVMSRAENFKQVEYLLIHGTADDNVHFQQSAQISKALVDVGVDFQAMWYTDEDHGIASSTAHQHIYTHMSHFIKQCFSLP

Structure (SMILES)	IC50 [nM]
CC#CCn1c(N2CCC[C@@H](N)C2)nc2c1c(=O)n(CC(=O)NCc1ccccc1)c(=O)n2C [1(1), 1-[(benzylaminocarbonyl)methyl]-3-methyl-7-(2-butyn-1-yl)-8-[(R)-3-amino-piperidin-1-yl]-xanthine]	46
CC#CCn1c(N2CCC[C@@H](N)C2)nc2c1c(=O)n(CC(=O)Nc1ccccc1)c(=O)n2C [1(2), 1-[(phenylaminocarbonyl)methyl]-3-methyl-7-(2-butyn-1-yl)-8-[(R)-3-amino-piperidin-1-yl]-xanthine]	26
CC#CCn1c(N2CCC[C@@H](N)C2)nc2c1c(=O)n(CC(=O)OCc1cccnc1)c(=O)n2C [1(4), 1-{[(pyridin-3-yl)methoxycarbonyl]methyl}-3-methyl-7-(2-butyn-1-yl)-8-[(R)-3-amino-piperidin-1-yl]-xanthine]	13
CC#CCn1c(N2CCC[C@@H](N)C2)nc2c1c(=O)n(CC(=O)Nc1cccnc1)c(=O)n2C [1(5), 1-{[(pyridin-3-yl)aminocarbonyl]methyl}-3-methyl-7-(2-butyn-1-yl)-8-[(R)-3-amino-piperidin-1-yl]-xanthine]	7
CC#CCn1c(N2CCC[C@@H](N)C2)nc2c1c(=O)n(CC(=O)Nc1ccccc1C)c(=O)n2C [1(6), 1-{[(2-methyl-phenyl)aminocarbonyl]methyl}-3-methyl-7-(2-butyn-1-yl)-8-[(R)-3-amino-piperidin-1-yl]-xanthine]	722
CC#CCn1c(N2CCC[C@@H](N)C2)nc2c1c(=O)n(CC(=O)Nc1ccccc1[N+](=O)[O-])c(=O)n2C [1(7), 1-{[(2-nitro-phenyl)aminocarbonyl]methyl}-3-methyl-7-(2-butyn-1-yl)-8-[(R)-3-amino-piperidin-1-yl]-xanthine]	4
CC#CCn1c(N2CCCC(N)C2)nc2c1c(=O)n(CC(=O)Nc1ccc(C#N)cc1)c(=O)n2C (stereo not shown) [1(8), 1-{[(4-cyano-phenyl)aminocarbonyl]methyl}-3-methyl-7-(2-butyn-1-yl)-8-(3-amino-piperidin-1-yl)-xanthine]	42

Results, then the molecule that gave them:

IC50 [nM]	Structure (SMILES)
32	CC#CCn1c(N2CCC[C@@H](N)C2)nc2c1c(=O)n(CC(=O)Nc1ccccc1OC)c(=O)n2C [1(9), 1-{[(2-methoxy-phenyl)aminocarbonyl]methyl}-3-methyl-7-(2-butyn-1-yl)-8-[(R)-3-amino-piperidin-1-yl]-xanthine]
286	CC#CCn1c(N2CCCC(N)C2)nc2c1c(=O)n(CC(=O)COc1ccccc1)c(=O)n2C (stereo not shown) [1(10), 1-(2-oxo-3-phenoxy-propyl)-3-methyl-7-(2-butyn-1-yl)-8-(3-amino-piperidin-1-yl)-xanthine]
28	CC#CCn1c(N2CCCC(N)C2)nc2c1c(=O)n(CC(=O)NCc1ccccc1N)c(=O)n2C (stereo not shown) [1(11), 1-[(2-amino-benzylaminocarbonyl)methyl]-3-methyl-7-(2-butyn-1-yl)-8-(3-amino-piperidin-1-yl)-xanthine]
4	CC#CCn1c(N2CCC[C@@H](N)C2)nc2c1c(=O)n(CC(=O)Nc1ccccn1)c(=O)n2C [Example 1(3), 1-{[(pyridin-2-yl)aminocarbonyl]methyl}-3-methyl-7-(2-butyn-1-yl)-8-[(R)-3-amino-piperidin-1-yl]-xanthine]
27	CC#CCn1c(N2CCC[C@@H](N)C2)nc2c1c(=O)n(CC(=O)OCc1ccccc1)c(=O)n2C [Example 1, 1-[(benzyloxycarbonyl)methyl]-3-methyl-7-(2-butyn-1-yl)-8-[(R)-3-amino-piperidin-1-yl]-xanthine]
